From patent US9446122B2, “Use of GK-1 peptide expressed on M13 filamentous phage as pharmaceutical ingredient to enhance the efficiency of the immune response induced by vaccine or pathogen antigens” (UNIVERSIDAD NACIONAL AUTONOMA DE MEXICO, priority 2011, dated 2016)

Tests used:
[1] = system: immune response elicited by influenza vaccine; test: Serum IgG after subcutaneous immunization, FGK-1 versus synthetic GK-1 (Example 4); assay type: in vivo, female BALB/cAnN mice; conditions: younger mice
Description: The following treatment schedules were assessed for five-mouse groups:
(§1) Influenza vaccine was administered at a dose of 1 μg/mouse [A/New Caledonia/20/99(H1N1) strain, A/Panama/2007/99(H3N2) strain (analog to A/Moscow/10/99 strain), and B/Victoria/504/2000 strain (analog to B/Sichuan/379/99 strain)]. FLUZONE® vaccine for the flu season 2004-2005, containing 45 μg of hemagglutinin HA per 0.5 ml-dose, was used.
(§2) Synthetic GK-1 peptide was used at its optimal dose (Segura-Velźquez et al. 2006), in a 10 μg/mouse concentration.
Mice received a single dose of each immunogen by subcutaneous route at the tail base, and the induced response was evaluated in serum 21 days after immunization. Sera were obtained from peripheral blood, centrifuged at 5,000 rpm by 12 min, and aliquots were frozen until analysis.

[2] = system: immune response elicited by intranasally administered influenza vaccine; test: Serum IgG after intranasal immunization, FGK-1 versus synthetic GK-1 (Example 5); assay type: in vivo, female BALB/cAnN mice
Description: The following treatment schedules were administered to five-mouse groups:
as §1, §2
Mice were administered intranasally one single dose of each immunogen, and the induced response was evaluated in serum and bronchoalveolar lavages in different times after immunization, namely 21 and 45 days. Sera were obtained from peripheral blood, centrifuged at 5,000 rpm by 12 min, and aliquots were frozen until analysis. Bronchoalveolar lavages were obtained by performing intratracheal lavages with 300 μl of saline solution 45 days after immunization.

G-Y-Y-Y-P-S-D-P-N-T-F-Y-A-P-P-Y-S-A (GYYYPSDPNTFYAPPYSA) [synthetic GK-1 peptide, 18-amino acid peptide derived from a Taenia solium cysticerci cDNA library]
antibody levels versus vaccine alone ([1]; co-administered with influenza vaccine): does not increase antibody levels
antibody response versus influenza vaccine alone ([1]; subcutaneous, 21 days): slightly higher antibody response
potentiation of influenza vaccine by intranasal administration [2]: does not potentiate the vaccine
